From patent US8148531B2 (Chroma Therapeutics Ltd., priority 2005, dated 2012)
pIC50: −log10 of the molar value.

Tests used:
[1] = biological target: T1, Aurora-A (Homo sapiens, UniProt O14965); experiment: Aurora-A enzyme assay (MBP-coated Flashplate, γ-33P-ATP); format: biochemical; settings: IC50 range class; read-out: Inhibitor Activity vs Aurora-A
T1 sequence (O14965 1-403): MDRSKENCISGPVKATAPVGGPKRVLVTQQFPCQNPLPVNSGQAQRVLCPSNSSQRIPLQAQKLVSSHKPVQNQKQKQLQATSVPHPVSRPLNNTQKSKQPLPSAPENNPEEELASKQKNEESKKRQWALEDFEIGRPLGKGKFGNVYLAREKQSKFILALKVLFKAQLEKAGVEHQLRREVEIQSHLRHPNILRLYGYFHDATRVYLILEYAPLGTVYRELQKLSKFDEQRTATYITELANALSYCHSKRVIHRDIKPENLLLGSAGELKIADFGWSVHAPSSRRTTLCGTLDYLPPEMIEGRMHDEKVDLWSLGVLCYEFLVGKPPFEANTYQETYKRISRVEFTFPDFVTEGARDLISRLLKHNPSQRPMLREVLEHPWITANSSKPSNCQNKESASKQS
Method: (§1) The ability of compounds to inhibit Aurora-A activity was measured using a simple microplate assay for Aurora-A activity, also suitable for high-throughput screening. In brief, γ-^33P-ATP and Aurora-A were incubated in a myelin basic protein (MBP)-coated Flashplate® to generate a scintillation signal. The plates were formatted to contain the inhibitor, controls, positive control (staurosporin) and blanks. After incubation at 37° C. for 1 hour and a subsequent wash procedure, the plates were read on a TopCount-NXT™.
The 384-well basic Flashplate® and the γ-^33P-ATP were obtained from PerkinElmer Life Sciences, Boston, Mass.
(§2) IC50 values were determined by non-linear regression analysis, after fitting the data point results to the equation for sigmoidal dose response with variable slope (% activity against log concentration of compound), using Graphpad Prism software.
Full experimental procedure for this assay can be found within the following reference: Sun, C Journal of Biomolecular Screening 9(5), 2004, 391.

[2] = biological target: Aurora-B (Homo sapiens, UniProt Q96GD4); experiment: Aurora-B enzyme assay (identical protocol as Aurora-A); format: biochemical; settings: IC50 range class; read-out: Inhibitor Activity vs Aurora-B
Method: as §1, §2
The Aurora-B enzyme assay follows the identical protocol as Aurora-A.

[3] = test system: U937 cell line; experiment: Cell inhibition assay (SRB cell viability), U937; format: cell-based; settings: Homo sapiens, U-937, IC50 range class, 72 h, read-out: Inhibitor Activity vs U937 cell line
Outline: (§3)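 Log-phase cells seeded at 1000 cells/well, grown 24 h, then exposed to compounds (20 uM final) for 72 h. Viability read by sulphorhodamine B staining as % inhibition versus DMSO; IC50 from eight-point sigmoidal variable-slope fit.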

[4] = test system: HUT cell line; experiment: Cell inhibition assay (SRB cell viability), HUT; format: cell-based; settings: IC50 range class, 72 h, read-out: Inhibitor Activity vs HUT cell line
Outline: as §3

[5] = test system: HCT 116 cell line; experiment: Cell inhibition assay (SRB cell viability), HCT 116; format: cell-based; settings: Homo sapiens, IC50 range class, 72 h, read-out: Inhibitor Activity vs HCT 116 cell line
Outline: as §3

Sequence of Aurora-B (Q96GD4 whole entry): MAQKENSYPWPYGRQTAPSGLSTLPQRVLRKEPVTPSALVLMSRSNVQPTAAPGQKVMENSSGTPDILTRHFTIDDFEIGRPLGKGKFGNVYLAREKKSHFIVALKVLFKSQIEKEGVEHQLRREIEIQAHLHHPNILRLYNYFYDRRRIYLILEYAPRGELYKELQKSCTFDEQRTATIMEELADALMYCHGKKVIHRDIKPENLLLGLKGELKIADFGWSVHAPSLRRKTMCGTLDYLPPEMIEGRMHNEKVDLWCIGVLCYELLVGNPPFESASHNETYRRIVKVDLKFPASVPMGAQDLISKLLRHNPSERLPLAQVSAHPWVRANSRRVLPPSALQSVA

Row | pIC50 [1] | pIC50 [2] | pIC50 [3] | pIC50 [5] | SMILES | pIC50 [4]
1 | > 5.70 | > 5.70 | – | – | COc1cc2c(Oc3ccc(NC(=O)c4ccccc4)cc3)ccnc2cc1OCC[C@H](NC(=O)OC(C)(C)C)C(=O)O [Example 3] | –
2 | > 5.70 | > 5.70 | – | – | COc1cc2c(Oc3ccc(NC(=O)c4ccccc4)cc3)ccnc2cc1OCC[C@H](N)C(=O)O [Example 4, (S)-2-Amino-4-[4-(4-benzoylamino-phenoxy)-6-methoxy-quinolin-7-yloxy]-butyric acid] | –
3 | < 5.30 | 5.30 to 5.70 | – | – | COc1cc2c(Nc3ccc(NC(=O)c4ccccc4)cc3)ccnc2cc1OCC[C@H](N)C(=O)O [Example 16, (S)-2-Amino-4-[4-(4-benzoylamino-phenylamino)-6-methoxy-quinolin-7-yloxy]-butyric acid] | –
4 | > 5.70 | > 5.70 | – | – | COc1cc2c(Sc3ccc(NC(=O)c4ccccc4)cc3)ccnc2cc1OCC[C@H](N)C(=O)O [Example 19, (S)-2-Amino-4-[4-(4-benzoylamino-phenylsulfanyl)-6-methoxy-quinolin-7-yloxy]-butyric acid] | –
5 | 5.30 to 5.70 | 5.30 to 5.70 | – | – | COc1cc2c(Sc3ccc(NC(=O)C4CC4)cc3)ccnc2cc1OCC[C@H](N)C(=O)O [Example 21, (S)-2-Amino-4-{4-[4-(cyclopropanecarbonyl-amino)-phenylsulfanyl]-6-methoxy-quinolin-7-yloxy}-butyric acid] | –
6 | > 5.70 | 5.30 to 5.70 | – | – | COc1cc2c(Nc3cnc(NC(=O)c4ccccc4)nc3)ccnc2cc1OCC[C@H](N)C(=O)O [Example 26, (S)-2-Amino-4-[4-(2-benzoylamino-pyrimidin-5-ylamino)-6-methoxy-quinolin-7-yloxy]-butyric acid] | –
7 | < 5.30 | – | 5.30 to 6.00 | 5.30 to 6.00 | COc1cc2c(Nc3ccc(NC(=O)c4ccccc4)cc3)c(C#N)cnc2cc1OCC[C@H](N)C(=O)OC1CCCC1 [Example 27] | > 6.00
8 | < 5.30 | – | > 6.00 | < 5.30 | COc1cc2c(Nc3ccc(NC(=O)c4ccccc4)cc3)c(C#N)cnc2cc1OCC[C@H](NC(=O)OC(C)(C)C)C(=O)OC1CCCC1 [Example 28] | 5.30 to 6.00
9 | 5.30 to 5.70 | 5.30 to 5.70 | – | – | COc1cc2c(Oc3ccc(NC(=O)c4ccccc4)cc3)ncnc2cc1OCC[C@H](N)C(=O)O [Example 30, (S)-2-Amino-4-[4-(4-benzoylamino-phenoxy)-6-methoxy-quinazolin-7-yloxy]-butyric acid] | –
10 | > 5.70 | 5.30 to 5.70 | – | – | COc1cc2nccc(Oc3ccc(NC(=O)c4ccccc4)cc3)c2cc1OCC[C@H](N)C(=O)O [Example 36, (S)-2-Amino-4-[4-(4-benzoylamino-phenoxy)-7-methoxy-quinolin-6-yloxy]-butyric acid] | –
11 | > 5.70 | > 5.70 | – | – | COc1cc2c(Oc3ccc(NC(=O)c4ccccc4)cc3)ccnc2cc1OCC[C@H](NC(C)=O)C(=O)O [Example 43, (S)-2-Acetylamino-4-[4-(4-benzoylamino-phenoxy)-6-methoxy-quinolin-7-yloxy]-butyric acid] | –
12 | > 5.70 | > 5.70 | – | – | COc1cc2c(Oc3ccc(NC(=O)c4ccc(C(F)(F)F)cc4)cc3)ccnc2cc1OCC[C@H](N)C(=O)O [Example 54, (S)-2-Amino-4-{6-methoxy-4-[4-(4-trifluoromethyl-benzoylamino)-phenoxy]-quinolin-7-yloxy}-butyric acid] | –
13 | < 5.30 | > 5.70 | – | – | COc1ccc(C(=O)Nc2ccc(Oc3ccnc4cc(OCC[C@H](N)C(=O)O)c(OC)cc34)cc2)cc1 [Example 58, (S)-2-Amino-4-{6-methoxy-4-[4-(4-methoxy-benzoylamino)-phenoxy]-quinolin-7-yloxy}-butyric acid] | –
14 | – | < 5.30 | > 6.00 | 5.30 to 6.00 | COc1cc2c(Oc3ccc(NC(=O)C4CC4)cc3)ccnc2cc1OCC[C@H](N)C(=O)OC1CCCC1 [Example 59, (S)-2-Amino-4-{4-[4-(cyclopropanecarbonyl-amino)-phenoxy]-6-methoxy-quinolin-7-yloxy}-butyric acid cyclopentyl ester] | 5.30 to 6.00
15 | < 5.30 | < 5.30 | – | – | COc1cc2c(Oc3ccc(NC(=O)C4CC4)cc3)ccnc2cc1OCC[C@H](N)C(=O)O [Example 60, (S)-2-Amino-4-{4-[4-(cyclopropanecarbonyl-amino)-phenoxy]-6-methoxy-quinolin-7-yloxy}-butyric acid] | –
16 | 5.30 to 5.70 | > 5.70 | – | – | COc1cc2c(Oc3ccc(NC(=O)c4ccccc4F)cc3)ccnc2cc1OCC[C@H](N)C(=O)O [Example 62, (S)-2-Amino-4-{4-[4-(2-fluoro-benzoylamino)-phenoxy]-6-methoxy-quinolin-7-yloxy}-butyric acid] | –
17 | 5.30 to 5.70 | > 5.70 | – | – | COc1cc2c(Oc3ccc(NC(=O)c4ccc(F)cc4)cc3)ccnc2cc1OCC[C@H](N)C(=O)O [Example 64, (S)-2-Amino-4-{4-[4-(4-fluoro-benzoylamino)-phenoxy]-6-methoxy-quinolin-7-yloxy}-butyric acid] | –
18 | > 5.70 | > 5.70 | – | – | COc1cc2c(Oc3ccc(NC(=O)c4ccc(Cl)cc4)cc3)ccnc2cc1OCC[C@H](N)C(=O)O [Example 67, (S)-2-Amino-4-{4-[4-(4-chloro-benzoylamino)-phenoxy]-6-methoxy-quinolin-7-yloxy}-butyric acid] | –
19 | 5.30 to 5.70 | > 5.70 | – | – | COc1cc2c(Oc3ccc(NC(=O)c4cc(C(F)(F)F)ccc4F)cc3)ccnc2cc1OCC[C@H](N)C(=O)O [Example 69, (S)-2-Amino-4-{4-[4-(2-fluoro-5-trifluoromethyl-benzoylamino)-phenoxy]-6-methoxy-quinolin-7-yloxy}-butyric acid] | –
20 | > 5.70 | > 5.70 | – | – | COc1cc2c(Oc3ccc(NC(=O)c4cccs4)cc3)ccnc2cc1OCC[C@H](N)C(=O)O [Example 76, (S)-2-Amino-4-(6-methoxy-4-{4-[(thiophene-2-carbonyl)-amino]-phenoxy}-quinolin-7-yloxy)-butyric acid] | –
21 | – | < 5.30 | 5.30 to 6.00 | < 5.30 | COc1cc2c(Oc3ccc(C(=O)Nc4ccccc4)cc3)ccnc2cc1OCC[C@H](N)C(=O)OC1CCCC1 [Example 77, (S)-2-Amino-4-[6-methoxy-4-(4-phenylcarbamoyl-phenoxy)-quinolin-7-yloxy]-butyric acid cyclopentyl ester] | 5.30 to 6.00
22 | 5.30 to 5.70 | 5.30 to 5.70 | – | – | COc1cc2c(Oc3ccc(C(=O)Nc4ccccc4)cc3)ccnc2cc1OCC[C@H](N)C(=O)O [Example 78, (S)-2-Amino-4-[6-methoxy-4-(4-phenylcarbamoyl-phenoxy)-quinolin-7-yloxy]-butyric acid] | –
23 | 5.30 to 5.70 | 5.30 to 5.70 | – | – | COc1cc2c(Oc3ccc(CC(=O)Nc4ccccc4)cc3)ccnc2cc1OCC[C@H](N)C(=O)O [Example 81, (S)-2-Amino-4-[6-methoxy-4-(4-phenylcarbamoylmethyl-phenoxy)-quinolin-7-yloxy]-butyric acid] | –
24 | 5.30 to 5.70 | > 5.70 | – | – | COc1cc2c(Oc3ccc(CC(=O)Nc4ccccc4F)cc3)ccnc2cc1OCC[C@H](N)C(=O)O [Example 83, (S)-2-Amino-4-(4-{4-[(2-fluoro-phenylcarbamoyl)-methyl]-phenoxy}-6-methoxy-quinolin-7-yloxy)-butyric acid] | –
25 | 5.30 to 5.70 | > 5.70 | – | – | COc1cc2c(Oc3ccc(CC(=O)Nc4cccc(F)c4)cc3)ccnc2cc1OCC[C@H](N)C(=O)O [Example 85, (S)-2-Amino-4-(4-{4-[(3-fluoro-phenylcarbamoyl)-methyl]-phenoxy}-6-methoxy-quinolin-7-yloxy)-butyric acid] | –
26 | < 5.30 | > 5.70 | – | – | COc1cc2c(Oc3ccc(CC(=O)Nc4ccc(F)cc4)cc3)ccnc2cc1OCC[C@H](N)C(=O)O [Example 87, (S)-2-Amino-4-(4-{4-[(4-fluoro-phenylcarbamoyl)-methyl]-phenoxy}-6-methoxy-quinolin-7-yloxy)-butyric acid] | –
27 | – | 5.30 to 5.70 | > 6.00 | > 6.00 | COc1cc2c(Oc3ccc(NC(=O)c4ccccc4)cc3F)ccnc2cc1OCC[C@H](N)C(=O)OC1CCCC1 [Example 128, (S)-2-Amino-4-[4-(4-benzoylamino-2-fluoro-phenoxy)-6-methoxy-quinolin-7-yloxy]-butyric acid cyclopentyl ester] | > 6.00
